Assay: xn = mol fraction of the nth substance listed
Conditions: Liquid, Vibrating tube method

CCCCCCC [heptane] + O=C=O
Conditions | mass density [kg/m3]
352.3 K, 20004 kPa, x2 = 0.7514 | 694.21
352.3 K, 21007 kPa, x2 = 0.7514 | 699.11
352.3 K, 22009 kPa, x2 = 0.7514 | 703.64
352.3 K, 22989 kPa, x2 = 0.7514 | 707.97
352.3 K, 24025 kPa, x2 = 0.7514 | 712.39
352.3 K, 24893 kPa, x2 = 0.7514 | 715.94
352.44 K, 4005 kPa, x2 = 0.0218 | 638.36
352.44 K, 5013 kPa, x2 = 0.0218 | 639.84
352.44 K, 6005 kPa, x2 = 0.0218 | 641.24
352.44 K, 7000 kPa, x2 = 0.0218 | 642.57
352.44 K, 8008 kPa, x2 = 0.0218 | 643.95
352.44 K, 9006 kPa, x2 = 0.0218 | 645.27
352.44 K, 10002 kPa, x2 = 0.0218 | 646.56
352.44 K, 11002 kPa, x2 = 0.0218 | 647.79
352.44 K, 12000 kPa, x2 = 0.0218 | 649.14
352.44 K, 13002 kPa, x2 = 0.0218 | 650.25
352.44 K, 13998 kPa, x2 = 0.0218 | 651.46
352.44 K, 15011 kPa, x2 = 0.0218 | 652.7
352.44 K, 16006 kPa, x2 = 0.0218 | 653.84
352.44 K, 17009 kPa, x2 = 0.0218 | 654.98
352.44 K, 17993 kPa, x2 = 0.0218 | 656.08
352.44 K, 18998 kPa, x2 = 0.0218 | 657.17
352.44 K, 20004 kPa, x2 = 0.0218 | 658.27
352.44 K, 21002 kPa, x2 = 0.0218 | 659.34
352.44 K, 22002 kPa, x2 = 0.0218 | 660.39
352.44 K, 23003 kPa, x2 = 0.0218 | 661.43
352.44 K, 23998 kPa, x2 = 0.0218 | 662.47
352.44 K, 25014 kPa, x2 = 0.0218 | 663.51
352.51 K, 9000 kPa, x2 = 0.5085 | 656.72
352.51 K, 10004 kPa, x2 = 0.5085 | 660.28
352.51 K, 11004 kPa, x2 = 0.5085 | 663.66
352.51 K, 12007 kPa, x2 = 0.5085 | 666.9
352.51 K, 13000 kPa, x2 = 0.5085 | 670.03
352.51 K, 14003 kPa, x2 = 0.5085 | 673
352.51 K, 15002 kPa, x2 = 0.5085 | 675.9
352.51 K, 15998 kPa, x2 = 0.5085 | 678.62
352.51 K, 17010 kPa, x2 = 0.5085 | 681.33
352.51 K, 18003 kPa, x2 = 0.5085 | 683.88
352.51 K, 19006 kPa, x2 = 0.5085 | 686.38
352.51 K, 20013 kPa, x2 = 0.5085 | 688.8
352.51 K, 21004 kPa, x2 = 0.5085 | 691.17
352.51 K, 22004 kPa, x2 = 0.5085 | 693.46
352.51 K, 23002 kPa, x2 = 0.5085 | 695.71
352.51 K, 24007 kPa, x2 = 0.5085 | 697.91
352.51 K, 25011 kPa, x2 = 0.5085 | 700.05
352.54 K, 15235 kPa, x2 = 0.9496 | 511.88
352.54 K, 15989 kPa, x2 = 0.9496 | 538.42
352.54 K, 17004 kPa, x2 = 0.9496 | 568.84
352.54 K, 18001 kPa, x2 = 0.9496 | 594.2
352.54 K, 18993 kPa, x2 = 0.9496 | 616.18
352.54 K, 20006 kPa, x2 = 0.9496 | 635.42
352.54 K, 20999 kPa, x2 = 0.9496 | 652.26
352.54 K, 22018 kPa, x2 = 0.9496 | 667.75
352.54 K, 22994 kPa, x2 = 0.9496 | 681.03
352.54 K, 24034 kPa, x2 = 0.9496 | 693.84
362.09 K, 12975 kPa, x2 = 0.7514 | 586.38
362.09 K, 14000 kPa, x2 = 0.7514 | 602.3
362.09 K, 14863 kPa, x2 = 0.7514 | 613.15
362.09 K, 16010 kPa, x2 = 0.7514 | 625.83
362.09 K, 17009 kPa, x2 = 0.7514 | 635.46
362.09 K, 18017 kPa, x2 = 0.7514 | 644.3
362.09 K, 19007 kPa, x2 = 0.7514 | 652.35
362.09 K, 20005 kPa, x2 = 0.7514 | 659.83
362.09 K, 21006 kPa, x2 = 0.7514 | 666.86
362.09 K, 22003 kPa, x2 = 0.7514 | 672.93
362.09 K, 22995 kPa, x2 = 0.7514 | 679.37
362.09 K, 24000 kPa, x2 = 0.7514 | 685.55
362.09 K, 24866 kPa, x2 = 0.7514 | 690.92
362.19 K, 7007 kPa, x2 = 0.3148 | 638.82
362.19 K, 8020 kPa, x2 = 0.3148 | 641.6
362.19 K, 9013 kPa, x2 = 0.3148 | 644.14
362.19 K, 10009 kPa, x2 = 0.3148 | 646.61
362.19 K, 11005 kPa, x2 = 0.3148 | 648.99
362.19 K, 12009 kPa, x2 = 0.3148 | 651.27
362.19 K, 12998 kPa, x2 = 0.3148 | 653.42
362.19 K, 13999 kPa, x2 = 0.3148 | 655.52
362.19 K, 15011 kPa, x2 = 0.3148 | 657.61
362.19 K, 16007 kPa, x2 = 0.3148 | 659.59
362.19 K, 17005 kPa, x2 = 0.3148 | 661.48
362.19 K, 18002 kPa, x2 = 0.3148 | 663.3
362.19 K, 18999 kPa, x2 = 0.3148 | 665.1
362.19 K, 20006 kPa, x2 = 0.3148 | 666.9
362.19 K, 21004 kPa, x2 = 0.3148 | 668.62
362.19 K, 22001 kPa, x2 = 0.3148 | 670.29
362.19 K, 23006 kPa, x2 = 0.3148 | 671.94
362.19 K, 24001 kPa, x2 = 0.3148 | 673.55
362.19 K, 25007 kPa, x2 = 0.3148 | 675.13
362.25 K, 17354 kPa, x2 = 0.9496 | 518.07
362.25 K, 17995 kPa, x2 = 0.9496 | 536.06
362.25 K, 19006 kPa, x2 = 0.9496 | 561.22
362.25 K, 20005 kPa, x2 = 0.9496 | 583.24
362.25 K, 21002 kPa, x2 = 0.9496 | 602.87
362.25 K, 21997 kPa, x2 = 0.9496 | 620.08
362.25 K, 22998 kPa, x2 = 0.9496 | 635.9
362.25 K, 24005 kPa, x2 = 0.9496 | 650.25
362.25 K, 24186 kPa, x2 = 0.9496 | 652.75
362.38 K, 4014 kPa, x2 = 0.0218 | 629.41
362.38 K, 5003 kPa, x2 = 0.0218 | 630.95
362.38 K, 6009 kPa, x2 = 0.0218 | 632.44
362.38 K, 7003 kPa, x2 = 0.0218 | 633.95
362.38 K, 8010 kPa, x2 = 0.0218 | 635.37
362.38 K, 9008 kPa, x2 = 0.0218 | 636.85
362.38 K, 9009 kPa, x2 = 0.5085 | 638.92
362.38 K, 10008 kPa, x2 = 0.5085 | 643.09
362.38 K, 10010 kPa, x2 = 0.0218 | 638.18
362.38 K, 10998 kPa, x2 = 0.5085 | 646.98
362.38 K, 11002 kPa, x2 = 0.0218 | 639.5
362.38 K, 12004 kPa, x2 = 0.0218 | 640.84
362.38 K, 12009 kPa, x2 = 0.5085 | 650.8
362.38 K, 13001 kPa, x2 = 0.0218 | 642.13
362.38 K, 13001 kPa, x2 = 0.5085 | 654.31
362.38 K, 14002 kPa, x2 = 0.5085 | 657.71
362.38 K, 14009 kPa, x2 = 0.0218 | 643.41
362.38 K, 15004 kPa, x2 = 0.0218 | 644.62
362.38 K, 15013 kPa, x2 = 0.5085 | 660.97
362.38 K, 16005 kPa, x2 = 0.0218 | 645.88
362.38 K, 16008 kPa, x2 = 0.5085 | 664.05
362.38 K, 16999 kPa, x2 = 0.0218 | 647.06
362.38 K, 17005 kPa, x2 = 0.5085 | 667.09
362.38 K, 18001 kPa, x2 = 0.0218 | 648.25
362.38 K, 18005 kPa, x2 = 0.5085 | 670.02
362.38 K, 18994 kPa, x2 = 0.0218 | 649.38
362.38 K, 19006 kPa, x2 = 0.5085 | 672.76
362.38 K, 19999 kPa, x2 = 0.0218 | 650.56
362.38 K, 20009 kPa, x2 = 0.5085 | 675.44
362.38 K, 21006 kPa, x2 = 0.0218 | 651.69
362.38 K, 21006 kPa, x2 = 0.5085 | 678.11
362.38 K, 22002 kPa, x2 = 0.0218 | 652.83
362.38 K, 22010 kPa, x2 = 0.5085 | 680.57
362.38 K, 23002 kPa, x2 = 0.5085 | 683.07
362.38 K, 23003 kPa, x2 = 0.0218 | 653.91
362.38 K, 23995 kPa, x2 = 0.0218 | 655.01
362.38 K, 23997 kPa, x2 = 0.5085 | 685.41
362.38 K, 25005 kPa, x2 = 0.0218 | 656.12
362.38 K, 25008 kPa, x2 = 0.5085 | 687.82
